Values of other authors in patent publication US10871492B2, “Methods for labeling urine in a subject with fluorophores” (UPTRU INC., priority 2015, dated 2020).

Settings: health care applications, especially fundus angiography

O=C([O-])c1ccccc1-c1c2ccc(=O)cc-2oc2cc([O-])ccc12.[Na+].[Na+] [Fluorescein sodium salt, fluorescein sodium salt]
dose generally considered safe: ≤ 25 mg/kg of body weight
